The experiment deals with Ubiquitin carboxyl-terminal hydrolase 30 (Homo sapiens) (UniProt Q70CQ3). The experiment can be described thus: ubiquitin-specific protease 30 DUB inhibitors, concentration-effect, biochemical, validation of primary actives (AID 1645865). As to conditions: purified USP30, Ub-rhodamine cleavage, fluorescence, 2 h.

Data on 87 molecules can be found in PubChem BioAssay AID1645865 (Buhrlage Lab, Dana-Farber Cancer Institute and Novartis …, 2021).

Active and inactive are the calls of the source.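 How the source made its calls: active means maximal inhibition of the USP30 enzyme reaching 30% or more across the dose series; inactive means the rest.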 Some results are limits rather than exact numbers.

The term IC50 denotes the concentration at which inhibition is half-maximal.

Ubiquitin carboxyl-terminal hydrolase 30 (Homo sapiens), sequence (Q70CQ3 whole entry, looked up): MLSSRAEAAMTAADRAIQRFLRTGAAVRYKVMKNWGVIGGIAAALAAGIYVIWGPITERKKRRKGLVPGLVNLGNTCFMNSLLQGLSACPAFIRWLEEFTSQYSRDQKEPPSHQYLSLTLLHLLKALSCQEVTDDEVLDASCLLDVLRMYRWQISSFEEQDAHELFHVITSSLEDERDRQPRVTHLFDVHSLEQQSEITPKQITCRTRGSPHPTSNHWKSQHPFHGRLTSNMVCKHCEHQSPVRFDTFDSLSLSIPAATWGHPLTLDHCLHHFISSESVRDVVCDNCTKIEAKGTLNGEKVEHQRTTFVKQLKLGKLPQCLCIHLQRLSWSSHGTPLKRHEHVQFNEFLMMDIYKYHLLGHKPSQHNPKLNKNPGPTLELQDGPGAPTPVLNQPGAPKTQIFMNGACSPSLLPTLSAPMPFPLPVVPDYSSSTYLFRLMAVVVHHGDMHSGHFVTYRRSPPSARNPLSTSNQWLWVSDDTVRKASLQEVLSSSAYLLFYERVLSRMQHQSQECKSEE

For the molecule `Cc1ccccc1Cn1cc(SCC(=O)Nc2ccc3c(c2)OCCO3)c2ccccc21`, the IC50 is > 50 µM (inactive).

For the molecule `O=C(CCc1ccccc1)N(CC1CCCO1)c1nc2ccccc2s1` (configuration not stated), the IC50 is 37.3 µM. Next, `O=C(NC1CCN(Cc2ccccc2)CC1)c1[nH]nc2c1COc1ccccc1-2`: > 50 µM (inactive). Next, `Cn1c(=O)c2c(ncn2CC(=O)NC2CCCc3ccccc32)n(C)c1=O` (configuration not stated): > 50 µM (inactive); `COc1cc(=O)c(C(=O)Nc2ccc(C#N)cc2)nn1-c1cccc(F)c1`: 25.4 µM. Next, `COC(=O)C1C(c2ccc(OC)cc2)C2(C(=O)c3ccccc3C2=O)C2C=Cc3ccccc3N12` (configuration not stated): > 50 µM (inactive).

As to `Cc1nc2cccnc2n1C1CCN(C(=O)c2cc3cc(Cl)ccc3[nH]2)C1` (configuration not stated), the IC50 was > 50 µM (inactive). The figure for `C=Cc1ccc(Cn2cc(S(=O)(=O)N3CCOCC3)ccc2=O)cc1` is 28.1 µM. The figure for `N[C@@H](Cc1ccccc1)C(=O)N1CCC2(CC1)CN(C(=O)c1ccc(Cl)cc1)CCO2` is > 50 µM (inactive); for `COc1ccc(NC(=O)C2[C@@H]3C(=O)N(C4CCCCC4)C(=O)[C@@H]3[C@H]3c4ccccc4C=CN23)cc1` (some centres not stated) it is > 50 µM (inactive). Next, `Fc1ccc(Oc2nc(CN3CCOCC3)nc3sc4c(c23)CCCC4)c(Cl)c1`: > 50 µM (inactive); `COc1ccc(NC(=O)C2CCN(c3cncnc3N(C)C)CC2)cc1OC`: > 50 µM (inactive). Regarding `COc1cccc(-n2c(=O)[nH]c3c(C(N)=O)nc(-c4ccc(OCc5ccccc5)cc4)nc32)c1`, the IC50 was > 50 µM (inactive). Next, `Nc1c(-c2ccc(Cl)cc2)cnc2cc(-c3ccc(Cl)c(Cl)c3)nn12`: 1.49 µM; `O=C(CCc1nnc2n(Cc3ccccc3)c(=O)c3ccccc3n12)N1CCN(c2ccccn2)CC1`: 2.29 µM; `Cc1cccc(NC(=O)CSc2ncnc3c2sc2nc(CC(C)C)c4c(c23)CCC4)c1`: 19.6 µM. Next, `O=c1c2cnc(N3CCOCC3)nc2ccn1CCc1ccccc1`: 16.7 µM; `CCc1cccc(CC)c1NC(=O)COC(=O)c1cc2cccc(OC)c2oc1=O`: 39.5 µM; `O=C(Nc1ccc(Cl)cc1F)c1cc(-c2ccccn2)n[nH]1`: 0.445 µM. Next, `Cc1cccc(NC(=O)c2nn(C)c3ccccc3c2=O)c1`: 24.6 µM; `Cc1ccc(C2c3cccn3CCN2C(=O)Nc2ccccc2)cc1` (configuration not stated): > 50 µM (inactive).

As for `O=C(COC(=O)c1cc(Cl)c2c(c1)OCO2)Nc1ccc2[nH]c(=O)[nH]c2c1`, the IC50 is > 50 µM (inactive). The figure for `COc1cccc(C(=O)NCc2[nH]nc3ccccc23)c1` is > 50 µM (inactive). The figure for `COc1ccc(-c2nonc2NC(=O)C(c2ccccc2)c2ccccc2)cc1OC` is > 50 µM (inactive). The figure for `Cn1c(=O)c(C(=O)CN2CCN(c3ccc(O)cc3)CC2)c(N)n(Cc2ccccc2)c1=O` is > 50 µM (inactive); for `O=C(NC1CCN(c2nc(-c3cccnc3)nc3ccccc23)CC1)c1cccnc1` it is > 50 µM (inactive); for `CN(C)c1ccc(C2CC(c3c(O)n(C)c(=O)[nH]c3=O)=Nc3ccccc3S2)cc1` (configuration not stated) it is 1.92 µM. On to `Cc1noc(-c2cccn(Cc3cccc(C(F)(F)F)c3)c2=O)n1`, for which the IC50 is > 50 µM (inactive). As for `CC(=O)N1CCCC(c2nc(C)cc(-c3cc(F)ccc3C(=O)O)n2)C1` (configuration not stated), the IC50 is > 50 µM (inactive).

For `COc1ccc(N(CC(=O)NC2CCCCC2)C(=O)c2ccc(-c3ccccc3)[nH]2)cc1OC`, the 50% inhibitory concentration (IC50) was 2.83 µM.

With `CS(=O)(=O)NC1CCCN(C(=O)Nc2cccc3ccccc23)C1` (configuration not stated), the IC50 was > 50 µM (inactive). The figure for `CC1(C(=O)NCc2ccccc2)Cn2c(cc3ccccc32)C(=O)N1Cc1ccccc1` (configuration not stated) is > 50 µM (inactive); for `O=C(CC1C(=O)N(Cc2ccccc2)c2nc3ccccc3n21)NCCc1ccccc1` (configuration not stated) it is 19.5 µM; for `CC(C)Cc1nc2oc3c(N(C)CCO)ncnc3c2c2c1CCC2` it is > 50 µM (inactive). Next, `COc1ccc(CCNc2c(-c3ccccc3O)nc3cnccn23)cc1OC`: > 50 µM (inactive).

On to `O=C(COc1cc([N+](=O)[O-])cc2cccnc12)NCCC1=CCCCC1`, for which the IC50 is 28.3 µM. Next, `COc1ccc(CCn2cnc3c4ccccc4n(C)c3c2=O)cc1OC`: > 50 µM (inactive). The figure for `COc1cccc(OCCCn2c(C(C)NC(=O)c3ccco3)nc3ccccc32)c1` (configuration not stated) is 34.8 µM; for `COc1ccc(NC(=O)c2nnn(-c3ccccc3)c2C)cc1OC` it is > 50 µM (inactive). The figure for `CC1=C[C@H]2N(c3ccc(C)cc31)[C@H](C(=O)c1cccs1)[C@@H](C(=O)c1ccc(F)cc1)[C@]21C(=O)Nc2ccccc21` is > 50 µM (inactive); for `Cc1nc(-c2ccccn2)sc1C(=O)Nc1ccc(C#N)cc1` it is > 50 µM (inactive).

Regarding `O=C1Cc2ccccc2C(=O)N1c1ccc2c(c1)OCO2`, the IC50 is > 50 µM (inactive). `O=C(Cc1noc2ccccc12)N1CCN(c2ccc([N+](=O)[O-])cc2)CC1`: the IC50 was > 50 µM (inactive). The figure for `Cc1ccc(C)c(-c2cc3c(=O)n(Cc4noc(CN5CCCCC5)n4)ccn3n2)c1` is > 50 µM (inactive). The figure for `COc1c(O)c(O)c2c(=O)cc(-c3ccc(O)cc3)oc2c1OC` is > 50 µM (inactive); for `O=C(COC(=O)c1ccc2[nH]c3c(c2c1)CCCC3)Nc1ccc2c(c1)OCO2` it is 37.7 µM. As for `O=C(/C=C/c1ccc(F)cc1)N1CCc2ccccc2C1`, the IC50 was > 50 µM (inactive). The figure for `CC(=O)Nc1cc(-c2cccc(O)c2)cn2c(-c3cnn(C)c3)cnc12` is 2.9 µM. The figure for `CC(C)(C)n1ncc2c(=O)n(Cc3cccc([N+](=O)[O-])c3)cnc21` is > 50 µM (inactive). Next, `O=C(NCc1ccc(-c2nc3cnccc3o2)cc1)c1ccccc1F`: 17.5 µM; `COc1ccc(-n2ccc(=O)c(-c3nc(-c4ccccc4F)no3)n2)cc1OC`: > 50 µM (inactive); `COc1ccc(C)cc1NC(=O)CSc1nc(C)nc2c1oc1ccccc12`: 17.9 µM. As for `O=C(NCc1ccc(F)cc1)N1CCC2(C1)Nc1cccnc1NC2=NCc1ccccc1` (configuration not stated), the IC50 is > 50 µM (inactive). Next, `O=C(CC1Oc2ccccc2NC1=O)Nc1ccccc1Br` (configuration not stated): 44.3 µM; `CCOc1ccc2c(c1)c(=O)c(C(=O)c1ccc(C)cc1)cn2CC(=O)Nc1ccc(OC)c(OC)c1`: 0.732 µM. Next, `CCOc1ccc(C(=O)Cn2c(=O)n(CC3CCCO3)c(=O)c3cc(OC)c(OC)cc32)cc1Cl` (configuration not stated): 25.8 µM; `FC(F)(F)c1ccccc1CCN1CCc2nc3ncc(Cl)cc3cc2C1`: > 50 µM (inactive). Consider `Fc1ccc(Nc2nc(Nc3cccc(F)c3)nc3nccnc23)cc1`, for which the IC50 is > 50 µM (inactive). Regarding `c1ccc(-n2nnc(-c3noc(-c4cccnc4)n3)c2-c2ccncc2)cc1`, the IC50 is 25.9 µM.

Consider `CNc1nc2c(c(=O)n1C)CN(C(=O)Nc1cccc3ccccc13)CC2`, for which the IC50 is > 50 µM (inactive). `COc1ccc(-c2cc3nc([C@H](C)NC(=O)Cc4cccc(F)c4)nn3cn2)cc1`: the IC50 is 3.92 µM. Next, `O=C(COc1ccc(Cl)cc1Cl)Nc1ccccc1-c1nc2ccccc2[nH]1`: 1.61 µM; `Cc1c(C(=O)Nc2cccc(C(F)(F)F)c2)cnn1-c1ccccn1`: 36 µM. Next, `Cc1nn(Cc2ccccc2)c(Cl)c1C(=O)NC1CCCc2ccccc21` (configuration not stated): > 50 µM (inactive).

As for `CCCN1CCN(C(=O)c2cc(NC(=O)C3CCC3)cc3nc(C)ccc23)CC1`, the IC50 is > 50 µM (inactive). Take `Cc1ccc(NC(=O)c2ccc(Nc3nnc(C)c4ccccc34)cc2)cc1`: the IC50 was 43.2 µM. The figure for `c1csc(-c2nc(Nc3ccc4c(c3)CCC4)c3ccccc3n2)c1` is 4.91 µM.

Consider `COc1ccc(OC)c(NC(=O)Cn2c(=O)n(CC3CCC(C(=O)NCCc4ccccc4)CC3)c(=O)c3ccccc32)c1` (configuration not stated), for which the IC50 was 1.77 µM. With `CCN1C(=O)COc2ccc(NC(=O)c3ccc(OCc4nonc4C)cc3)cc21`, the IC50 was 29.6 µM.

For the molecule `O=C(NCCn1ccc2ccccc21)c1cc2ccccc2oc1=O`, the IC50 is 40.9 µM.

As to `Cc1cc(CSc2ncccc2C(=O)Nc2ccnn2Cc2cccnc2)no1`, the IC50 is > 50 µM (inactive). Next, `O=[N+]([O-])c1cccc(-c2noc(CSc3ccccc3)n2)c1`: 46.6 µM. The figure for `CCC(C(=O)NCc1ccncc1)N(c1cccc(Cl)c1)S(C)(=O)=O` (configuration not stated) is > 50 µM (inactive); for `CC1CCCCN1CCCNC(=O)c1ccc(N2CCc3ccccc32)s1` (configuration not stated) it is 30.9 µM; for `CCN1CCCC1CN(Cc1cc2cc(OC)ccc2[nH]c1=O)C(=O)NCc1ccccc1` (configuration not stated) it is > 50 µM (inactive).

Turning to `c1ccc(CN2CCN(c3nc4ccccc4n4nnnc34)CC2)cc1`, the IC50 was > 50 µM (inactive). Next, `CSc1nccc(-c2ccc(F)cc2)c1C#N`: 36.3 µM. In the case of `COc1ccccc1-c1nc2c3c(C)c(C)n(Cc4cccnc4)c3ncn2n1`, the IC50 is > 50 µM (inactive).

With `O=C(NC1CCCCC1)c1cc2c(cn1)[nH]c1ccccc12`, the IC50 is > 50 µM (inactive).

As to `CC(C)c1cc(Nc2cccc(F)c2)n2nc(-c3cccnc3)nc2n1`, the IC50 is 6.35 µM.

Take `CC1=CN2C(=N)/C(=C/c3cn(Cc4ccc(Cl)cc4)c4ccccc34)C(=O)N=C2S1`: the IC50 was > 50 µM (inactive). The figure for `COc1cccc(NC(=O)Nc2ccc(CCc3nc4ccccc4[nH]3)cc2)c1` is 28.2 µM; for `CCCCCn1c(Sc2ccc(C)cc2)nc2c1c(=O)[nH]c(=O)n2C` it is 11.3 µM; for `CCOc1cc(C2C3=C(CC(C)(C)CC3=O)Nc3onc(C)c32)ccc1O` (configuration not stated) it is 37.3 µM. Next, `Cc1ccccc1NC(=O)CNc1nc(Nc2ccccc2)nc(Nc2ccccc2)n1`: 26.4 µM; `CC(C)(C)C(=O)Nc1ccc(C(=O)Nc2cccc(-c3nnc(-c4ccccc4)o3)c2)cc1`: 2.28 µM. Next, `COc1ccc(-c2[nH]c3ccccc3c2SCCNC(=O)c2ccc(S(=O)(=O)N3CCOCC3)cc2)cc1`: 28.7 µM.
